Measured values reported in ChEMBL document CHEMBL1201862, “PubChem BioAssay data set” (2004).
The source made the active and inactive calls.

Columns and labels:
[1] = target: T1, Heat shock factor protein 1 (Mus musculus, UniProt P38532); assay: enhancement of HSF1-driven luciferase signal – cell-based, NIH3T3, luminescence, dose retest, confirmation (AID 435004); format: functional;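 note: stress induced by proteasome inhibitor MG132 added 30 min after compound; luciferase reporter driven by HSF1 response element in NIH3T3 cells; actives raise luminescence as potentiators of the MG132 stress response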
T1 sequence (P38532 whole entry): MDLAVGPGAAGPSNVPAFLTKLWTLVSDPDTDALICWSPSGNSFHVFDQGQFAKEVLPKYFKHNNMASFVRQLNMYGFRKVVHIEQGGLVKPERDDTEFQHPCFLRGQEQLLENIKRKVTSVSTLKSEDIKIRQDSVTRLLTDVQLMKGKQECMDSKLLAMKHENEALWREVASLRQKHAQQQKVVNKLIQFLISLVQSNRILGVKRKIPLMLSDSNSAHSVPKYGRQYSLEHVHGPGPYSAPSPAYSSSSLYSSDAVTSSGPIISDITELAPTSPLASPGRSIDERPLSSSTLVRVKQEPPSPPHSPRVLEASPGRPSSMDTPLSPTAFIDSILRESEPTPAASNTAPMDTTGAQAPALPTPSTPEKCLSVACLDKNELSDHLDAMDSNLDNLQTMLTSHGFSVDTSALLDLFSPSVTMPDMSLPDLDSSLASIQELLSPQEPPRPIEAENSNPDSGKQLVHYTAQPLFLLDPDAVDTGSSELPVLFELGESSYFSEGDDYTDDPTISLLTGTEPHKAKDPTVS

[2] = microbe, parasite or virus in culture; format: functional; conditions: Mycobacterium tuberculosis
[3] = target: T2, Replicative DNA helicase DnaB (Mycobacterium tuberculosis, UniProt P9WMR3); assay: DnaB intein splicing inhibitors, dose response, biochemical, cell-free fluorescence (AID 449749); format: functional
T2 sequence (P9WMR3 whole entry): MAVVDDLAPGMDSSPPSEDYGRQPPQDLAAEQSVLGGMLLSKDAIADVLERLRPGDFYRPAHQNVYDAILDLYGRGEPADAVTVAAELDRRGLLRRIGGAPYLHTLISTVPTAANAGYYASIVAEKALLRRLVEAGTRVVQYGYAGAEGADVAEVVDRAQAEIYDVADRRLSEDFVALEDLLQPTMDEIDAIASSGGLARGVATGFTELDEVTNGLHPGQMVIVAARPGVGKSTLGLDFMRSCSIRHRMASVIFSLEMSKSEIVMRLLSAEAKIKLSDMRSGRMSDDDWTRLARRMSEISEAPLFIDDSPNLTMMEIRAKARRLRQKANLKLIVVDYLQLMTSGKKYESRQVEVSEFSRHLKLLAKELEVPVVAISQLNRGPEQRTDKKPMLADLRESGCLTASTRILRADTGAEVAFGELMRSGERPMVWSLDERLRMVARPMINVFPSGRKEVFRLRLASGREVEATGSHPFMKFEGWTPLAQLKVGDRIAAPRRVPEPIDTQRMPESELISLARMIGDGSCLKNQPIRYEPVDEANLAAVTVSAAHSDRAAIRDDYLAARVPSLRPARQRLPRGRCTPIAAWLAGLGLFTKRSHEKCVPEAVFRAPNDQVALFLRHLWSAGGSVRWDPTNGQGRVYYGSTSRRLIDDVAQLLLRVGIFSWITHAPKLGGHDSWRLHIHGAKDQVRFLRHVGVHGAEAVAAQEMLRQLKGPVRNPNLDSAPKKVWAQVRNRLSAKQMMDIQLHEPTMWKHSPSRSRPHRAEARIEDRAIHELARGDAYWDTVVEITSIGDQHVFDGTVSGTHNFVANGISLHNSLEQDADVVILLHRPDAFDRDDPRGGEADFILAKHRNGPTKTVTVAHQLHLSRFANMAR

[4] = target: T3, Protein RecA (Mycobacterium tuberculosis, UniProt P9WHJ3); assay: Fluorescence Cell-Free Homogeneous Dose Retest to Identify Inhibitors of RecA-Intein Splicing Activity. [Related pubchem assays (depositor defined):AID2097, AID2223, AID489010, AID492950]; format: functional
T3 sequence (P9WHJ3 whole entry): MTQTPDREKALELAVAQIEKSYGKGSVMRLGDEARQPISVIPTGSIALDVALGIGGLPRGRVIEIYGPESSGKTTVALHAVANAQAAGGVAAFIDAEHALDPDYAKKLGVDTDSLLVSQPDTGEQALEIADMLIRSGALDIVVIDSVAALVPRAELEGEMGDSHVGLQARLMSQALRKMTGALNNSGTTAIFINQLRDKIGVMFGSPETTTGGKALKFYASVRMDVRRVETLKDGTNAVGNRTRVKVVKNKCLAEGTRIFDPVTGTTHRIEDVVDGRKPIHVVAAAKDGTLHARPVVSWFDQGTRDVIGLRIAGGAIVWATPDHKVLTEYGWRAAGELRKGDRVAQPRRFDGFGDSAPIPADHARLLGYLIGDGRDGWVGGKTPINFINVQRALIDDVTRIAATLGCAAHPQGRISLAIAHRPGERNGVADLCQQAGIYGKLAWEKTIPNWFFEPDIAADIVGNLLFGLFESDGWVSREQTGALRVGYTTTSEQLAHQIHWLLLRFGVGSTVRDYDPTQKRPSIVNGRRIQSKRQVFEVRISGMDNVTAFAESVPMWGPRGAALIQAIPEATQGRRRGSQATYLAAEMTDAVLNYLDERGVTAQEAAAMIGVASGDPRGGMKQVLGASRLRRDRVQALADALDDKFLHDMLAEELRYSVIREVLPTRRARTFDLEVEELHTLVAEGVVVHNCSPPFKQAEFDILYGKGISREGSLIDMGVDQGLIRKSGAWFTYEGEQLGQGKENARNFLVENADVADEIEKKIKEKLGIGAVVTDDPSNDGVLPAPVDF

[5] = system: INS1; assay: INS-1E survival protection against cytokine death – cell-based, luminescence, retest, dose response (AID 449756); format: functional; conditions: Rattus norvegicus;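 note: cell death triggered by IL-1 beta plus TNF-alpha plus IFN-gamma mixture; protective hits raise ATP signal compared with cytokine alone wells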
[6] = system: Streptococcus sp. 'group A'; assay: Streptococcus pyogenes SK(-)GAS viability under kanamycin – luminescence, BacTiterGlo, confirmation, counter-screen for streptokinase expression inhibitor project, dose response (AID 1900); format: functional, organism-based
[7] = target: T4, Streptokinase A (Streptococcus pyogenes serotype M1, UniProt P10520); assay: viability-normalized secreted streptokinase activity reduction – plasminogen activation absorbance, OD405, dose response (AID 1914); format: functional, Streptococcus pyogenes M1 GAS;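 note: secreted streptokinase activity via plasminogen activation per viability signal from cell pellet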
T4 sequence (P10520 whole entry): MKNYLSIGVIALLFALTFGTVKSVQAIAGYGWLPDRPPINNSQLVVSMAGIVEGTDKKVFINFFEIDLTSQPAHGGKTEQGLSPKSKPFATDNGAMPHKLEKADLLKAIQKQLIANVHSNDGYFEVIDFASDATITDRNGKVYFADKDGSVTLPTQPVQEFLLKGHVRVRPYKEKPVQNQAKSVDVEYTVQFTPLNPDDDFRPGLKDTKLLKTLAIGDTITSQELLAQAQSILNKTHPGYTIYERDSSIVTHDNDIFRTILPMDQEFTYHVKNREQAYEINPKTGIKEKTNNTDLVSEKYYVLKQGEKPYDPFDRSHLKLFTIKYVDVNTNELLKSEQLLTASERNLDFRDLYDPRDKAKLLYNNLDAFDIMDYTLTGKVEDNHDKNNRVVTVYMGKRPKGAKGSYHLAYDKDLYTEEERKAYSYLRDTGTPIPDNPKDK

[8] = system: Streptococcus; assay: GAS UMAA2166 growth inhibition – luminescence, BacTiterGlo, counter-screen for streptokinase expression inhibitor project, dose response (AID 1915); format: functional, organism-based;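 note: potency for reduction of bacterial viability or growth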
[9] = target: T5, Rac GTPase-activating protein 1 (Homo sapiens, UniProt Q9H0H5); assay: blockers of MgcRacGAP-driven Rac1 GTP hydrolysis – biochemical, ADP Hunter fluorescence, primary and confirmatory, confirmation (AID 624330); format: functional
T5 sequence (Q9H0H5 whole entry): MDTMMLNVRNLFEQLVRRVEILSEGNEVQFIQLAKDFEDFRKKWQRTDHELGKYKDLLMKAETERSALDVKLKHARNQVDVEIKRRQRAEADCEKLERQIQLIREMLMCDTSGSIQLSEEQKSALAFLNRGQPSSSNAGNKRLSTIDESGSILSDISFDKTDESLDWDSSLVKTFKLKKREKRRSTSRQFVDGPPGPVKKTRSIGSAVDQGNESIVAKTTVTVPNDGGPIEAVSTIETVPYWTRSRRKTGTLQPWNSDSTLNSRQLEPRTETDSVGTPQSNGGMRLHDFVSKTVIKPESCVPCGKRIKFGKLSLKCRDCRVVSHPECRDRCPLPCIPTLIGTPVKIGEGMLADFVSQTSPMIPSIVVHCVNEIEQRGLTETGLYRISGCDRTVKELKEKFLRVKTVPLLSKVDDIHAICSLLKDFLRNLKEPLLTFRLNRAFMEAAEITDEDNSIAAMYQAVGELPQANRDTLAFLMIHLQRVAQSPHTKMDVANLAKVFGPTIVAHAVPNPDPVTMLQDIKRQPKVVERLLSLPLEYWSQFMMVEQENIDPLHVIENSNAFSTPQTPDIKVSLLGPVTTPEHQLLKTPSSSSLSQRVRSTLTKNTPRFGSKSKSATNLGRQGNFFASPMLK

[10] = P. falciparum Dd2 growth inhibitors, dose response, SYBR Green, cherry-picked samples (AID 1159567); format: functional, cell-based
[11] = target: Cytochrome P450 3A4 (Homo sapiens, UniProt P08684);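 note: CYP3A4 tested as one member of a cytochrome P450 panel screen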
[12] = target: T6, Cytochrome P450 1A2 (Homo sapiens, UniProt P05177);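 note: PubChem cytochrome P450 panel assay, CYP1A2 panel member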
T6 sequence (P05177 whole entry): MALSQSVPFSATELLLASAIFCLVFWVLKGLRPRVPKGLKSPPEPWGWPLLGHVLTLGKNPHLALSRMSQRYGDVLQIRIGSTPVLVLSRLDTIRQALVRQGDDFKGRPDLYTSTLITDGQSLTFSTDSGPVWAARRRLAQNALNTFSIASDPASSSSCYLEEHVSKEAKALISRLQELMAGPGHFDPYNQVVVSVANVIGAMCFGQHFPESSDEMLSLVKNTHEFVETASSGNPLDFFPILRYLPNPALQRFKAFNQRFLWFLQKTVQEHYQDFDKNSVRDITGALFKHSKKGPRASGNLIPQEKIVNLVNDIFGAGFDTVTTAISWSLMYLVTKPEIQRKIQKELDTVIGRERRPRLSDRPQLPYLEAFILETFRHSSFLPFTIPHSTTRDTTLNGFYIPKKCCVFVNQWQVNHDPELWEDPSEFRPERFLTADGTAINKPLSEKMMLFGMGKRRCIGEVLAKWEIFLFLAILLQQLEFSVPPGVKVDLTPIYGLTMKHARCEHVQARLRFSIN

[13] = target: Cytochrome P450 2D6 (Homo sapiens, UniProt P10635);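 note: CYP2D6 member of a cytochrome P450 panel assay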
[14] = NIH3T3 cell viability loss – ATP luminescence, mouse fibroblasts, counter-screen, dose response (AID 2010); format: functional, cell-based;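 note: cells exposed to compound for about 90 hours before reading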
[15] = Trypanosoma cruzi growth suppression in host cells – NIH3T3 host cells, beta-gal luminescence, confirmation (AID 2044); format: functional, cell-based;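 note: intracellular parasites grown in NIH/3T3 mouse fibroblasts as host cells; luminescent beta-galactosidase reporter signal from transgenic T. cruzi replicating inside host cells; inhibitors lower the luminescence signal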

Sequence of Cytochrome P450 3A4 (P08684 whole entry): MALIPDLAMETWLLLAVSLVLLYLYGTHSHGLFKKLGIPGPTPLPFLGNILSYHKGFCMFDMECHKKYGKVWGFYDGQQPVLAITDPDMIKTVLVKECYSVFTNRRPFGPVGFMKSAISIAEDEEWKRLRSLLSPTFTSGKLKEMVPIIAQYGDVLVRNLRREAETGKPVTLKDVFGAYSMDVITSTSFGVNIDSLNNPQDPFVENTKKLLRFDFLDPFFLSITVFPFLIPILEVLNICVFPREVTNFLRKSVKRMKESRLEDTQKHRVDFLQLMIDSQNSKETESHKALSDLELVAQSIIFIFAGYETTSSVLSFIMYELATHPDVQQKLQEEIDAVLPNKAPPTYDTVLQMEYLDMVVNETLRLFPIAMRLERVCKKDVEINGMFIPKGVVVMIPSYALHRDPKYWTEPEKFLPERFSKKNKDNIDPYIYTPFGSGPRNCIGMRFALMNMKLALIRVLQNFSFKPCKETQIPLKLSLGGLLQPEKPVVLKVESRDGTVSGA
Sequence of Cytochrome P450 2D6 (P10635 whole entry): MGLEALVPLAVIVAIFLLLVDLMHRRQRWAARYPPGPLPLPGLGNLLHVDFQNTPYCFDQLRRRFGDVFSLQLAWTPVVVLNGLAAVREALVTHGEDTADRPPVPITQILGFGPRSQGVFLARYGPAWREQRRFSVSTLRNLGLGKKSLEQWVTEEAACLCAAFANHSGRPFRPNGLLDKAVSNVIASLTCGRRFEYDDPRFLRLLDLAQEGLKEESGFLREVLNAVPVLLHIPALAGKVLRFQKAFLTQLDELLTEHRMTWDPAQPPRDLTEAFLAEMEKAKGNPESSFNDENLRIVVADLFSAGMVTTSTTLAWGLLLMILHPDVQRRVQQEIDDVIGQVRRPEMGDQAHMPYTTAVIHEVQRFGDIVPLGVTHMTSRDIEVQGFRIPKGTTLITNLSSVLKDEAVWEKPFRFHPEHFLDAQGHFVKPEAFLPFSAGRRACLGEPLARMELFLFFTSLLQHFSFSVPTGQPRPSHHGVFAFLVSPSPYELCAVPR

Compound: CCOC(=O)c1nnc(-c2ccccc2)nc1Sc1ccccc1Cl
- EC50 [1]: 8.48 µM (active)
- CC50 [2]: > 40 µM (active)
- AC50 [3]: 2.36 µM (active)
- EC50 [4]: 0.686 µM (active)

Compound: COc1ccc(-n2c(=S)[nH]c3cc(C(=O)Nc4ccccc4OC)ccc3c2=O)cc1
- AC50 [5]: 6.62 µM (active)

Compound: COCCn1nnnc1C(c1cc2cc(OC)ccc2nc1O)N1CCC(Cc2ccccc2)CC1 (stereo unspecified)
- CC50 [2]: > 40 µM (active)

Compound: CCCCCCCCCCCCC(NC(C)=O)(C(=O)OCC)C(=O)OCC
- EC50 [6]: 6.45 µM (active)
- EC50 [7]: > 150 µM (not active)
- EC50 [8]: 8.56 µM (active)

Compound: O=[N+]([O-])c1cc(Cl)c(O)c(-[n+]2c(-c3ccccc3)cc(-c3ccccc3)cc2-c2ccccc2)c1.[O-][Cl+3]([O-])([O-])[O-]
- CC50 [2]: > 40 µM (active)

Compound: CC(C(=O)N1CCCc2ccccc21)N1CCN(c2ccccn2)CC1 (stereo unspecified)
- IC50 [9]: 93.9 µM (active)

Compound: O=C1N=C(Nc2ccccc2)S/C1=C\C=C\c1ccco1
- CC50 [2]: 39.3 µM (active)

Compound: CN1CC(=O)N(CC(=O)Nc2ccc(N(C)C)cc2)c2ccccc2C1=O
- IC50 [9]: 56.7 µM (active)

Compound: CC1(C)S[C@@H]2[C@H](NC(=O)COc3ccccc3)C(=O)N2C1C(=O)OCc1cc2ccccc2n1S(=O)(=O)c1ccccc1 (stereo partly specified)
- EC50 [6]: 6.32 µM (active)
- EC50 [7]: 23.6 µM (active)
- EC50 [8]: 39.9 µM (active)

Compound: CC12CCC(C(=O)Nc3cccc(Cl)c3Cl)([C@H](Br)C1=O)C2(C)C (stereo partly specified)
- EC50 [6]: > 150 µM (not active)
- EC50 [7]: > 150 µM (not active)
- EC50 [8]: > 150 µM (not active)

Compound: Cc1ccc(C(C)(C)C)cc1S(=O)(=O)N1CCC(C(=O)N2CCN(c3ccc(O)cc3)CC2)CC1
- IC50 [9]: 99.1 µM (active)

Compound: COc1ccc(NC2CCCN(C(=O)c3cc(C)nc4cc(F)ccc34)C2)cc1 (stereo unspecified)
- IC50 [9]: 120 µM (active)

Compound: Cc1oc(C(C)(C)C)cc1C(=O)N1CCN(C(c2ccccc2)c2ccccc2)CC1
- EC50 [6]: 2.64 µM (active)
- EC50 [7]: 17.6 µM (active)
- EC50 [8]: 16.4 µM (active)

Compound: COc1ccccc1NC(=O)Nc1nc(CC(=O)Nc2cc(F)ccc2F)cs1
- EC50 [6]: 11.5 µM (active)
- EC50 [7]: > 150 µM (not active)
- EC50 [8]: 30.9 µM (active)

Compound: O=C(NNC(=S)NC(=O)c1ccco1)c1ccc(NC(=O)c2ccccc2)cc1
- EC50 [6]: 0.973 µM (active)
- EC50 [7]: > 150 µM (not active)
- EC50 [8]: 9.14 µM (active)

Compound: O=C(N/C(=C\c1ccc(O)cc1)C(=O)N1CCCCC1)c1ccccc1
- IC50 [9]: 47.3 µM (active)

Compound: COCC/N=C1/Sc2nc3ccc(C)cc3cc2CN1Cc1ccco1
- CC50 [2]: > 40 µM (active)

Compound: C/C(=N/Nc1nc(-c2ccccc2)cc(-c2ccc(F)cc2)n1)c1cccc(N)c1
- AC50 [5]: 3.64 µM (active)

Compound: COc1cccc(-c2ccc([C@H]3[C@H](CO)N4CCCCN(CC5CC5)C[C@@H]34)cc2)c1
- AC50 [10]: 5.84 µM (active)

Compound: CCCCCCCCSc1nnc(CSc2nc3nc(C)cc(C)n3n2)o1
- AC50 [11]: 35.5 µM (inconclusive)
- AC50 [12]: 31.6 µM (inconclusive)
- AC50 [13]: 28.2 µM (inconclusive)
- AC50 [5]: 14.9 µM (active)

Compound: CCn1c2ccccc2c2cc(CN3CCN(Cc4cc(OC)ccc4O)CC3)ccc21
- EC50 [14]: > 60 µM (not active)
- EC50 [15]: 1.21 µM (active)
- CC50 [2]: > 40 µM (active)
